Assay results reported in patent US20060040884A1, “Antisense oligonucleotides directed to genes regulated by trapoxin-induced HDAC inhibition” (priority 2001, published 2006).
Strand notation (5' to 3'): a small letter for the sugar, then the base; units joined by * are phosphorothioate-linked, units joined directly phosphodiester-linked; [ ] holds rarer units or linkages, { } end groups; capitals alone tell only the bases. e = 2'-O-(2-methoxyethyl) (MOE); [5mC] = 5-methylcytosine; d = 2'-deoxy (DNA)

Legend:
RhoB = RhoB expression in H1299 cells transfected with antisense oligonucleotides (Western blot); assay type: cell-based, human; settings: 400 nM oligonucleotide with LIPOFECTIN, harvested 72 h after first transfection
Description: (§1) H1299 cells are transfected with HDAC1 antisense oligonucleotides NAS 6887, HDAC1 mismatch oligonucleotide NAS 7618, luciferase antisense oligonucleotide NAS 5596, or mock transfected. The following are the sequences of the modified oligonucleotides:
modified such that “s” stands for phosphorothioate, upper case refers to 2′-H, lower case refers to 2′-O-methoxyethyl and “c” refers to 2′-methoxyethyl 5-methylcytidine. Transfection is performed using LIPOFECTIN (Life Technologies) as a carrier according to the manufacturer's instruction. The transfection mixture is prepared in OPTI-MEM (Life Technologies) containing 6 μl LIPOFECTIN per 400 nM oligonucleotide. Transfection is carried out for 4 h, and is repeated twice on two consecutive days. Cells are harvested 72 h after the first transfection. RNA and proteins are isolated using Trizol reagent (Life Technologies) according to the manufacturer's instruction. Traces of DNA are removed from RNA samples using DNA-free (Ambion, Austin, Tex.) according to the manufacturer's protocol. RNA concentration is measured on CytoFluor Multi-well plate reader (PerSeptive Biosystems, Framingham, Mass.) using RIBO GREEN RNA Quantification kit (Molecular Probes, Eugene, Oreg.). Real Time RT-PCR
To determine the effect of specific HDAC1 blockade on RhoB expression, antisense oligonucleotides against HDAC1 were used. Potent antisense oligonucleotides against HDAC1 as well as oligonucleotides with mismatched nucleotides were synthesized and transfected into H1299 cells as specifically disclosed herein and as described in Examples 6-9. […] RNA and protein were isolated from H1299 cells transfected with the HDAC1 antisense oligonucleotides (NAS 6887), the corresponding mismatch (NAS 7618) and the unrelated luciferase control oligonucleotide (NAS 5596), and were analysed by real time RT-PCR and Western blot for HDAC1 and RhoB expression level. […] In contrast, no effects on RhoB expression were found in cells transfected with the NAS 7618 and NAS 5596 oligonucleotides.

HDAC1 = HDAC1 expression in H1299 cells transfected with antisense oligonucleotides (real time RT-PCR, Western blot); assay type: cell-based, human
Description: as §1
modified such that “s” stands for phosphorothioate, upper case refers to 2′-H, lower case refers to 2′-O-methoxyethyl and “c” refers to 2′-methoxyethyl 5-methylcytidine. Transfection is performed using LIPOFECTIN (Life Technologies) as a carrier according to the manufacturer's instruction. The transfection mixture is prepared in OPTI-MEM (Life Technologies) containing 6 μl LIPOFECTIN per 400 nM oligonucleotide. Transfection is carried out for 4 h, and is repeated twice on two consecutive days. […] RNA concentration is measured on CytoFluor Multi-well plate reader (PerSeptive Biosystems, Framingham, Mass.) using RIBO GREEN RNA Quantification kit (Molecular Probes, Eugene, Oreg.). […]
To determine the effect of specific HDAC1 blockade on RhoB expression, antisense oligonucleotides against HDAC1 were used. […] RNA and protein were isolated from H1299 cells transfected with the HDAC1 antisense oligonucleotides (NAS 6887), the corresponding mismatch (NAS 7618) and the unrelated luciferase control oligonucleotide (NAS 5596), and were analysed by real time RT-PCR and Western blot for HDAC1 and RhoB expression level. […]

## NAS 5596: luciferase antisense control oligonucleotide, SEQ ID NO 14: cct taCs CsTsGs CsTsAs Gsct ggc (antisense CCTTACCTGCTAGCTGGC; phosphorothioate modifications, chemistry not fully specified)
RhoB
  RhoB expression (protein level): no effects

## NAS 7618: HDAC1 mismatch oligonucleotide, SEQ ID NO 13: gct ttAs CsGsCs CsTsAs Csag gtt (antisense GCTTTACGCCTACAGGTT; phosphorothioate modifications, chemistry not fully specified)
RhoB
  RhoB expression (protein level): no effects

## NAS 6887: HDAC1 antisense oligonucleotide, SEQ ID NO 12: gct gtAs CsTsCs CsGsAs Csat gtt (antisense eGe[5mC]eTeGeTdA*dC*dT*dC*dC*dG*dA*dC*eAeTeGeTeT)
RhoB
  RhoB expression (protein level): significantly induced
HDAC1; H1299 cells, 400 nM oligonucleotide with LIPOFECTIN, harvested 72 h after first transfection
  Expression of HDAC1 (real time RT-PCR and Western blot): efficiently blocked
HDAC1; transfected H1299 cells
  Inhibition of HDAC1 mRNA level: very potent inhibition
